Key:
[1] = system: P. falciparum female gametocytes; assay: P. falciparum Dual Gamete Formation Assay (PfDGFA), female readout (Pfs25-positive female gametes); format: cell-based, Plasmodium falciparum NF54; details: for % inhibition female (individual replicates) R1: replicate R1; for % inhibition female (individual replicates) R3: replicate R3; for % inhibition female (individual replicates) R4: replicate R4; for Average inhibition female (%): average of replicates
How it was run: (§1)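 NF54 mature gametocytes (d14), cpd 24 h 37°C hypoxic gas; trigger: xanthurenic acid ookinete medium + Cy3 anti-Pfs25, 4°C 4 min → 28°C 4 min. Male: exflagellation centres, brightfield x6. Female: Pfs25+ gametes, fluorescence, +24 h 28°C dark.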

[2] = system: P. falciparum male gametocytes; assay: P. falciparum Dual Gamete Formation Assay (PfDGFA), male readout (exflagellation); format: cell-based, Plasmodium falciparum NF54; details: for % inhibition male (individual replicates) R1: replicate R1; for % inhibition male (individual replicates) R3: replicate R3; for % inhibition male (individual replicates) R4: replicate R4; for Average inhibition male (%): average of replicates; for Activity: hit = >50% inhibition in male or female readout in at least 3 replicates, 0 = no class assigned
How it was run: as §1

[3] = PfDGFA at 2µM, 24h preincubation with gametocytes prior to induction of gametogenesis
[4] = PfDGFA at 2µM, 24h preincubation
[5] = PfDGFA at 2µM, 24h preincubation with gametocytes
[6] = 2µM, 24h preincubation with gametocytes prior to induction of gametogenesis
[7] = 2µM, 24h preincubation, number of replicates with >50% inhibition in the female readout
[8] = 2µM, 24h preincubation, number of replicates with >50% inhibition in the male readout
[9] = 2µM, 24h preincubation, hits selected on >50% inhibition in the female readout across replicates
[10] = 2µM, 24h preincubation, hits selected on >50% inhibition in the male readout across replicates

| Compound | % inhibition female (individual replicates) R1 [1, 3] [%] | % inhibition female (individual replicates) R3 [1, 3] [%] | % inhibition female (individual replicates) R4 [1, 3] [%] | Average inhibition female (%) [1, 4] [%] | % inhibition male (individual replicates) R1 [2, 3] [%] | % inhibition male (individual replicates) R4 [2, 3] [%] | Average inhibition male (%) [2, 4] [%] | Average inhibition female (%) [1, 6] [%] | % inhibition female (individual replicates) R1 [1, 6] [%] | % inhibition female (individual replicates) R3 [1, 6] [%] | % inhibition female (individual replicates) R4 [1, 6] [%] | HitlevelF [1, 7] | Average inhibition male (%) [2, 6] [%] | % inhibition male (individual replicates) R1 [2, 6] [%] | % inhibition male (individual replicates) R3 [2, 6] [%] | % inhibition male (individual replicates) R4 [2, 6] [%] | HitlevelM [2, 8] | further results |
| --- | --- | --- | --- | --- | --- | --- | --- | --- | --- | --- | --- | --- | --- | --- | --- | --- | --- | --- |
| CS(=O)(=O)c1ccc(-n2nc(C(F)(F)F)cc2-c2ccc(C=NOCC(=O)O)o2)cc1 [TCMDC-132015] | 5.4 | -21.4 | 0.25 | -6.9 | 7.6 | -18.5 | -6.3 | – | – | – | – | – | – | – | – | – | – | % inhibition male (individual replicates) R3 [2, 3]: -4.4% |
| CCCCOc1c(CNCCCCCCNCc2ccc3ccccc3c2OCCCC)ccc2ccccc12.CS(=O)(=O)O [TCMDC-137975] | – | – | – | – | – | – | – | – | – | – | – | – | – | – | – | – | – | Average inhibition female (%) [1, 5]: 39.1%; % inhibition female (individual replicates) R1 [1, 5]: 52.1%; % inhibition female (individual replicates) R3 [1, 5]: 14.4%; % inhibition female (individual replicates) R4 [1, 5]: 37.6%; HitlevelF ([1]; number of replicates with >50% inhibition in the female readout, 2µM): 2; Average inhibition male (%) [2, 5]: 78.3%; % inhibition male (individual replicates) R1 [2, 5]: 78.0%; % inhibition male (individual replicates) R4 [2, 5]: 67.8%; HitlevelM ([2]; number of replicates with >50% inhibition in the male readout, 2µM): 3 |
| O=c1c(NCCCN(Cc2ccc(F)cc2)c2ccccn2)c(NCc2ccncc2)c1=O [TCMDC-142310] | 6.5 | -28.2 | -7.1 | -7.2 | -3.0 | -2.5 | -8.8 | – | – | – | – | – | – | – | – | – | – | % inhibition male (individual replicates) R3 [2, 3]: -19.8% |
| COc1cccc(-c2csc(C(=O)NCC3CCN(Cc4ccc(C(C)(C)C)cc4)C3)c2)c1.O=C(O)C(F)(F)F (stereo not drawn) [TCMDC-134447] | – | – | – | – | – | – | – | 52.6 | 33.4 | 31.5 | 78.5 | 2 | 11.1 | 23.9 | 12.3 | 2.2 | 0 | – |
| COc1cc(NC(=O)c2sc(-c3ccc(Cl)cc3)cc2NC(=O)c2cccnc2)ccc1OCCN1CCCC1 [TCMDC-135397] | – | – | – | – | – | – | – | 46.9 | 19.3 | 58.0 | 48.0 | 2 | 57.2 | 45.5 | 40.3 | 71.6 | 2 | – |
| Cc1cc(N2CCN(C)CC2)nc2ccc(NC(=O)Cc3cccc(C(F)(F)F)c3)cc12 [TCMDC-123590] | 1.4 | 3.7 | -0.7 | 2.2 | 6.9 | -7.6 | 3.5 | – | – | – | – | – | – | – | – | – | – | – |
| CN1CCN(c2cc(-c3cccnc3)nc(-c3ccncc3)n2)CC1 [TCMDC-125593] | -2.3 | -6.8 | 22.4 | 0.0475 | -6.4 | 5.5 | -4.3 | – | – | – | – | – | – | – | – | – | – | % inhibition male (individual replicates) R3 [2, 3]: -15.1% |
| CC[C@H](C)CNC(=O)c1ccnc(-c2ccc(CN3CCC(N4CCCC4)CC3)cc2)c1.O=C(O)C(F)(F)F [TCMDC-134250] | – | – | – | – | – | – | – | 14.3 | 14.5 | 6.5 | 6.6 | – | -12.4 | -12.1 | -7.9 | -29.8 | – | HitlevelF [1, 9]: 0; HitlevelM [2, 10]: 0; Activity [2, 4]: 0 |
| Cc1ccc2c(Cc3cnc(N)nc3N)cc(C)c(N)c2n1.Cl [TCMDC-137878] | 1.9 | 4.6 | 2.9 | -0.2 | 10.8 | 0.8 | 15.3 | – | – | – | – | – | – | – | – | – | – | – |
| COc1ccc(NC(=O)[C@H](Cc2ccccc2)Nc2cc(C)nc(NCCc3ccccn3)n2)cc1.O=C(O)C(F)(F)F [TCMDC-134746] | 14.8 | -15.3 | -1.8 | 1.5 | -7.8 | 23.6 | -7.4 | – | – | – | – | – | – | – | – | – | – | % inhibition male (individual replicates) R3 [2, 3]: -30.0% |
| O=C(Nc1nc(-c2ccccn2)cs1)c1ccc(S(=O)(=O)N2CCc3ccccc32)cc1 [TCMDC-125432] | – | – | – | – | – | – | – | 23.2 | 27.4 | 14.7 | 30.9 | 0 | -21.9 | -19.8 | -49.6 | -25.8 | 0 | – |
| CN(C)CCCc1cc2c(cc1Cl)CCN2C(=O)Nc1ccc(-c2ccncc2)c2ccccc12 [TCMDC-139215] | – | – | – | – | – | – | – | 5.1 | 27.9 | -29.4 | 20.5 | – | 2.0 | 5.2 | 1.0 | 8.2 | – | HitlevelF [1, 9]: 0; HitlevelM [2, 10]: 0; Activity [2, 4]: 0 |
| CCn1c(-c2nonc2N)nc2c(-c3cccc(NC(=O)Nc4ccccc4OC)c3)ncc(OCCCN)c21.O=C(O)C(F)(F)F [TCMDC-136190] | – | – | – | – | – | – | – | 31.3 | 29.0 | 9.1 | 20.1 | 1 | 38.6 | 46.0 | 15.9 | 54.2 | 1 | – |
| CCCN(CC1CC1)c1ncc(-c2cccc(CNCCC3CCCN3C)c2)cn1 (stereo not drawn) [TCMDC-133142] | – | – | – | – | – | – | – | 16.5 | 26.9 | 12.7 | -0.1 | – | 41.7 | 43.1 | 28.4 | 53.6 | – | HitlevelF [1, 9]: 0; HitlevelM [2, 10]: 1; Activity [2, 4]: 0 |
| CCOc1ccc2c(=NN=Cc3ccc(OC)c(OC)c3)cc(C)[nH]c2c1 [TCMDC-142206] | – | – | – | – | – | – | – | 22.4 | 27.0 | -3.4 | 40.7 | 0 | 11.1 | 9.5 | 6.4 | 28.2 | 0 | – |
| CCS(=O)(=O)c1ccc(-c2cnc3[nH]cc(-c4ccc(N)cc4)c3c2)cc1 [TCMDC-132582] | – | – | – | – | – | – | – | 24.2 | 25.6 | 29.8 | 22.2 | 0 | 35.5 | 70.7 | – | -32.7 | 2 | – |
| Cl.NC1=NC(CCc2ccccc2)N(c2ccc(Cl)cc2)C(N)=N1 (stereo not drawn) [TCMDC-131290] | 1.0 | -2.9 | -19.8 | -10.7 | -21.3 | -39.8 | -16.9 | – | – | – | – | – | – | – | – | – | – | % inhibition male (individual replicates) R3 [2, 3]: -9.1% |
| Cc1c(Cn2ncc(N3CCC(N)CC3)c(Cl)c2=O)cccc1NC(=O)Nc1ccc(-c2ccccc2)cc1.O=C(O)C(F)(F)F [TCMDC-141931] | – | – | – | – | – | – | – | 48.9 | 32.2 | 19.7 | 64.5 | 2 | 36.5 | 42.7 | 3.4 | 40.2 | 1 | – |
